Data as given in patent publication US20240199546A1, “INHIBITORS OF SOLUTE CARRIER FAMILY 6A MEMBER 19 (SLC6A19) AND METHODS OF USE THEREOF” (Maze Therapeutics, Inc., priority 2022, published 2024).

What was measured:
human SLC6A19 and TMEM27 [1] = molecular target: T1, human SLC6A19 and TMEM27 (Homo sapiens, UniProt Q695T7); assay: Radiolabelled (3H) leucine uptake in CHO cells with doxycycline-inducible expression of human SLC6A19 and TMEM27 (Example B-1); assay type: cell-based; conditions: CHO cells with doxycycline-inducible expression of human SLC6A19 and TMEM27, read-out: SLC6A19_Radioligand Uptake Assay IC50
T1 construct: expressed in transfected cells
T1 sequence (Q695T7 1-634): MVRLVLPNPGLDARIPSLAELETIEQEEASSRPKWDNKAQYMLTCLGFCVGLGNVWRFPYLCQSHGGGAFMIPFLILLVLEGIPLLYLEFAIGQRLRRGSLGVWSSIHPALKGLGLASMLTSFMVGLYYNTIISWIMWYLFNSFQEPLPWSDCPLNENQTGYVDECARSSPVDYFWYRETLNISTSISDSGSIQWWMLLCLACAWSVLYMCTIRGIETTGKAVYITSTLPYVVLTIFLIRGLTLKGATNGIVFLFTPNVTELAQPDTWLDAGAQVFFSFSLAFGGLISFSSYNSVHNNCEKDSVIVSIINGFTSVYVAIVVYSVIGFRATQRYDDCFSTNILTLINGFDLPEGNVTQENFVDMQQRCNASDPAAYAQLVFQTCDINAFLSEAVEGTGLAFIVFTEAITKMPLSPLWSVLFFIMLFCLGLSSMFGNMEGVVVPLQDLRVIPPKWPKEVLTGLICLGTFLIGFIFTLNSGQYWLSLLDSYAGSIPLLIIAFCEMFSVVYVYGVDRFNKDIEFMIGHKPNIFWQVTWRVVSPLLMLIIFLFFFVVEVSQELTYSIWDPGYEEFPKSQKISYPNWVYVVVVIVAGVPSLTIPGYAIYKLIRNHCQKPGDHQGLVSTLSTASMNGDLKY
T1 sequence (Q9HBJ8 15-222 partner): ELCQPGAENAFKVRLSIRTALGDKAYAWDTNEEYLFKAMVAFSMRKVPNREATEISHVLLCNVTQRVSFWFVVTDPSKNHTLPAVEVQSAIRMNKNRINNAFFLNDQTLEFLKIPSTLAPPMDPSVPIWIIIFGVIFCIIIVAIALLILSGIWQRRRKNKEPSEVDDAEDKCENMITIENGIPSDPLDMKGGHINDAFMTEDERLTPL
In short: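 CHO cells were induced with doxycycline for 18 h at 37 °C, washed in HBSS, then exposed to compounds for 1 h: 8-point, 3-fold dilutions in duplicate, 0.5% DMSO final. Uptake measured by scintillation counting after 2 h shaking. Activity normalized with positive control as 0% and DMSO as 100%.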

human SLC6A19 and TMEM27 [2] = molecular target: T1, human SLC6A19 and TMEM27; assay: 13C6,15N-isoleucine uptake in CHO cells with doxycycline-inducible expression of human SLC6A19 and TMEM27, RapidFire mass spectrometry (Example B-2); assay type: cell-based; conditions: read-out: SLC6A19_RapidFire Uptake Assay IC50
In short: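 Read-out is RapidFire mass-spec peak area of 13C6,15N-isoleucine taken up over 20 min at 37 °C, after 20 min compound pre-exposure in pH 7.2 HEPES-buffered saline. Cells: doxycycline-induced CHO co-expressing human SLC6A19 and TMEM27; compounds as duplicate 10-point 2-fold dilutions, positive control setting 0% activity.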

Row | Structure (SMILES) | IC50 (human SLC6A19 and TMEM27 [1]) [µM] | IC50 (human SLC6A19 and TMEM27 [2]) [µM]
1 | CC1(C(=O)NCc2cc3cc(F)c(OCc4ccon4)cc3[nH]2)CC1 [Compound 6, N-((5-fluoro-6-(isoxazol-3-ylmethoxy)-1H-indol-2-yl)methyl)-1-methylcyclopropane-1-carboxamide] | 0.175 | 0.148
2 | Cc1cc2cc(CNC(=O)C3(C)CC3)[nH]c2cc1OCc1cscn1 [Compound 11, 1-methyl-N-((5-methyl-6-(thiazol-4-ylmethoxy)-1H-indol-2-yl)methyl)cyclopropane-1-carboxamide] | 0.118 | 0.076
3 | Cc1cc(COc2cc3[nH]c(CNC(=O)C4(C)CC4)cc3cc2F)on1 [Compound 12, N-((5-fluoro-6-((3-methylisoxazol-5-yl)methoxy)-1H-indol-2-yl)methyl)-1-methylcyclopropane-1-carboxamide] | 0.079 | 0.144
4 | Cc1ncc(COc2cc3[nH]c(CNC(=O)C4(C)CC4)cc3cc2F)s1 [Compound 13, N-((5-fluoro-6-((2-methylthiazol-5-yl)methoxy)-1H-indol-2-yl)methyl)-1-methylcyclopropane-1-carboxamide] | 0.637 | 0.764
5 | Cc1cc(COc2cc3[nH]c(CNC(=O)C4(C)CC4)cc3cc2C)no1 [Compound 14, 1-methyl-N-((5-methyl-6-((5-methylisoxazol-3-yl)methoxy)-1H-indol-2-yl)methyl)cyclopropane-1-carboxamide] | 0.111 | 0.12
6 | CC1(C(=O)NCc2cc3cc(Cl)c(OCc4cscn4)c(F)c3[nH]2)CC1 [Compound 18, N-((5-chloro-7-fluoro-6-(thiazol-4-ylmethoxy)-1H-indol-2-yl)methyl)-1-methylcyclopropane-1-carboxamide] | 0.078 | 0.091
7 | CC1(C(=O)NCc2cc3c(F)cc(OCc4ccon4)cc3[nH]2)CC1 [Compound 27, N-((4-fluoro-6-(isoxazol-3-ylmethoxy)-1H-indol-2-yl)methyl)-1-methylcyclopropane-1-carboxamide] | 0.084 | 0.092
8 | CC1(C(=O)NCc2cc3c(F)cc(OCc4cscn4)cc3[nH]2)CC1 [Compound 29, N-((4-fluoro-6-(thiazol-4-ylmethoxy)-1H-indol-2-yl)methyl)-1-methylcyclopropane-1-carboxamide] | 0.06 | 0.045
9 | CC1(C(=O)NCc2cc3ccc(OCc4cccc(F)n4)cc3[nH]2)CC1 [Compound 33, N-((6-((6-fluoropyridin-2-yl)methoxy)-1H-indol-2-yl)methyl)-1-methylcyclopropane-1-carboxamide] | 0.172 | 0.221
10 | CC1(C(=O)NCc2cc3ccc(OCc4ccc(F)nc4)cc3[nH]2)CC1 [Compound 34, N-((6-((6-fluoropyridin-3-yl)methoxy)-1H-indol-2-yl)methyl)-1-methylcyclopropane-1-carboxamide] | 0.602 | 0.615
11 | Cc1cc(COc2cc3[nH]c(CNC(=O)C4(C)CC4)cc3cc2C(F)(F)F)no1 [Compound 58, 1-methyl-N-((6-((5-methylisoxazol-3-yl)methoxy)-5-(trifluoromethyl)-1H-indol-2-yl)methyl)cyclopropanecarboxamide] | 0.162 | 0.028
12 | CC1(C(=O)NCc2cc3ccc(OCC4CCCC4)cc3[nH]2)CC1 [Compound 187, N-((6-(cyclopentylmethoxy)-1H-indol-2-yl)methyl)-1-methylcyclopropane-1-carboxamide] | – | 0.178
13 | CC1(C(=O)NCc2cc3ccc(OCC4CCOC4)cc3[nH]2)CC1 (centres unmarked) [Compound 188, 1-methyl-N-((6-((tetrahydrofuran-3-yl)methoxy)-1H-indol-2-yl)methyl)cyclopropane-1-carboxamide] | – | 4.45
14 | CNC(=O)NCc1cc2ccc(OCc3cscn3)cc2[nH]1 [Compound 217, 1-methyl-3-((6-(thiazol-4-ylmethoxy)-1H-indol-2-yl)methyl)urea] | – | 3.42

More lines, now with the values ahead:

Row | IC50 (human SLC6A19 and TMEM27 [1]) [µM] | IC50 (human SLC6A19 and TMEM27 [2]) [µM] | Structure (SMILES)
15 | 0.119 | 0.051 | CC1(C(=O)NCc2cc3cc(F)c(OCc4cscn4)cc3[nH]2)CC1 [Compound 8, N-((5-fluoro-6-(thiazol-4-ylmethoxy)-1H-indol-2-yl)methyl)-1-methylcyclopropane-1-carboxamide]
16 | 1.43 | 0.502 | Cc1cncc(COc2cc3[nH]c(CNC(=O)C4(C)CC4)cc3cc2Cl)c1 [Compound 23, N-((5-chloro-6-((5-methylpyridin-3-yl)methoxy)-1H-indol-2-yl)methyl)-1-methylcyclopropane-1-carboxamide]
17 | 0.412 | 0.222 | Cc1csc(COc2cc3[nH]c(CNC(=O)C4(C)CC4)cc3cc2Cl)n1 [Compound 24, N-((5-chloro-6-((4-methylthiazol-2-yl)methoxy)-1H-indol-2-yl)methyl)-1-methylcyclopropane-1-carboxamide]
18 | 0.124 | 0.033 | CC1(C(=O)NCc2cc3cc(Cl)c(OCc4ccsc4)cc3[nH]2)CC1 [Compound 25, N-((5-chloro-6-(thiophen-3-ylmethoxy)-1H-indol-2-yl)methyl)-1-methylcyclopropane-1-carboxamide]
19 | 0.149 | 0.166 | CC1(C(=O)NCc2cc3cc(Cl)c(OCc4ncccc4F)cc3[nH]2)CC1 [Compound 26, N-((5-chloro-6-((3-fluoropyridin-2-yl)methoxy)-1H-indol-2-yl)methyl)-1-methylcyclopropane-1-carboxamide]
20 | 0.17 | 0.079 | CC1(C(=O)NCc2cc3cc(Cl)c(OCc4ccc(F)cn4)cc3[nH]2)CC1 [Compound 28, N-((5-chloro-6-((5-fluoropyridin-2-yl)methoxy)-1H-indol-2-yl)methyl)-1-methylcyclopropane-1-carboxamide]
21 | 0.263 | 0.155 | CC1(C(=O)NCc2cc3cc(Cl)c(OCc4cccnc4F)cc3[nH]2)CC1 [Compound 30, N-((5-chloro-6-((2-fluoropyridin-3-yl)methoxy)-1H-indol-2-yl)methyl)-1-methylcyclopropane-1-carboxamide]
22 | 0.419 | 0.504 | CC1(C(=O)NCc2cc3cc(Cl)c(OCc4ccc(F)nc4)cc3[nH]2)CC1 [Compound 31, N-((5-chloro-6-((6-fluoropyridin-3-yl)methoxy)-1H-indol-2-yl)methyl)-1-methylcyclopropane-1-carboxamide]
23 | 0.133 | 0.058 | CC1(C(=O)NCc2cc3cc(Cl)c(OCc4cccc(F)n4)cc3[nH]2)CC1 [Compound 32, N-((5-chloro-6-((6-fluoropyridin-2-yl)methoxy)-1H-indol-2-yl)methyl)-1-methylcyclopropane-1-carboxamide]
24 | 0.716 | 0.316 | CC1(C(=O)NCc2cc3cc(Cl)c(OCc4cncc(F)c4)cc3[nH]2)CC1 [Compound 36, N-((5-chloro-6-((5-fluoropyridin-3-yl)methoxy)-1H-indol-2-yl)methyl)-1-methylcyclopropane-1-carboxamide]
25 | 0.261 | 0.071 | CC1(C(=O)NCc2cc3cc(Cl)c(OCc4ccccn4)cc3[nH]2)CC1 [Compound 41, N-((5-chloro-6-(pyridin-2-ylmethoxy)-1H-indol-2-yl)methyl)-1-methylcyclopropane-1-carboxamide]
26 | 0.18 | 0.075 | Cc1cc(COc2cc3[nH]c(CNC(=O)C4(C)CC4)cc3cc2Cl)no1 [Compound 45, N-((5-chloro-6-((5-methylisoxazol-3-yl)methoxy)-1H-indol-2-yl)methyl)-1-methylcyclopropane-1-carboxamide]
27 | 0.07 | 0.061 | CC1(C(=O)NCc2cc3cc(Cl)c(OCc4ccon4)cc3[nH]2)CC1 [Compound 46, N-((5-chloro-6-(isoxazol-3-ylmethoxy)-1H-indol-2-yl)methyl)-1-methylcyclopropane-1-carboxamide]
28 | – | 0.091 | Cc1nc(COc2cc3[nH]c(CNC(=O)C4(C)CC4)cc3cc2Cl)co1 [Compound 182, N-((5-chloro-6-((2-methyloxazol-4-yl)methoxy)-1H-indol-2-yl)methyl)-1-methylcyclopropane-1-carboxamide]
29 | – | 0.039 | CC1(C(=O)NCc2cc3cc(Cl)c(OCc4cnsn4)cc3[nH]2)CC1 [Compound 183, N-((6-((1,2,5-thiadiazol-3-yl)methoxy)-5-chloro-1H-indol-2-yl)methyl)-1-methylcyclopropane-1-carboxamide]
